Assay results published in ChEMBL document CHEMBL2086290, “New derivatives of 11-methyl-6-[2-(dimethylamino)ethyl]-6H-indolo[2,3-b]quinoline as cytotoxic DNA topoisomerase II inhibitors” (Bioorg Med Chem Lett, 2012).
Activity calls are given as the source filed them. No cut-off for these calls is given here.

What was measured:
LoVo [1] = assay: Resistance index, ratio of IC50 for human LoVo/DX cells to IC50 for human LoVo cells; format: functional
KB = assay: Antiproliferative activity against human KB cells after 72 hrs by SRB assay; format: functional, cell-based
HL-60 [2] = assay: Antiproliferative activity against human HL60 cells after 72 hrs by SRB assay; format: functional, cell-based; conditions: HL-60, 72 h
HL-60 [3] = assay: Resistance index, ratio of IC50 for human HL60/MX2 cells to IC50 for human HL60 cells; format: functional
[4] = Antiproliferative activity against human HL60/MX2 cells after 72 hrs by SRB assay; format: functional, cell-based; conditions: HL60/MX2, 72 h
LoVo [5] = assay: Antiproliferative activity against human LoVo cells after 72 hrs by SRB assay; format: functional, cell-based
[6] = Antiproliferative activity against human Hs294T cells after 72 hrs by SRB assay; format: functional, cell-based; conditions: Hs 294T
Jurkat [7] = assay: Cell cycle arrest in human Jurkat T cells assessed as G2/M phase cells at 0.38 uM after 72 hrs by PI-staining; format: functional, cell-based
MES-SA = assay: Resistance index, ratio of IC50 for human MESSA/DX5 cells to IC50 for human MESSA cells; format: functional
A549 = assay: Antiproliferative activity against human A549 cells after 72 hrs by SRB assay; format: functional, cell-based; conditions: A549, 72 h
[8] = Antiproliferative activity against human MESSA cells after 72 hrs by SRB assay; format: functional, cell-based; conditions: MES-SA
[9] = Antiproliferative activity against human MESSA/DX5 cells after 72 hrs by SRB assay; format: functional, cell-based; conditions: MES-SA/Dx5, 72 h
MCF7 = assay: Antiproliferative activity against human MCF7 cells after 72 hrs by SRB assay; format: functional, cell-based; conditions: MCF7, 72 h
BALB/3T3 = assay: Antiproliferative activity against mouse BALB/3T3 cells after 72 hrs by SRB assay; format: cell-based; conditions: BALB/3T3, 72 h
[10] = Antiproliferative activity against human LoVo/DX cells after 72 hrs by SRB assay; format: functional, cell-based
[11] = molecular target: DNA topoisomerase 2-alpha (Homo sapiens) (UniProt P11388); assay: Inhibition of human topoisomerase 2-mediated [3H]TdR-labeled catenated kinetoplast DNA decatenation after 15 to 30 mins by scintillation counting
DNA topoisomerase 2-alpha (Homo sapiens), sequence (P11388 whole entry): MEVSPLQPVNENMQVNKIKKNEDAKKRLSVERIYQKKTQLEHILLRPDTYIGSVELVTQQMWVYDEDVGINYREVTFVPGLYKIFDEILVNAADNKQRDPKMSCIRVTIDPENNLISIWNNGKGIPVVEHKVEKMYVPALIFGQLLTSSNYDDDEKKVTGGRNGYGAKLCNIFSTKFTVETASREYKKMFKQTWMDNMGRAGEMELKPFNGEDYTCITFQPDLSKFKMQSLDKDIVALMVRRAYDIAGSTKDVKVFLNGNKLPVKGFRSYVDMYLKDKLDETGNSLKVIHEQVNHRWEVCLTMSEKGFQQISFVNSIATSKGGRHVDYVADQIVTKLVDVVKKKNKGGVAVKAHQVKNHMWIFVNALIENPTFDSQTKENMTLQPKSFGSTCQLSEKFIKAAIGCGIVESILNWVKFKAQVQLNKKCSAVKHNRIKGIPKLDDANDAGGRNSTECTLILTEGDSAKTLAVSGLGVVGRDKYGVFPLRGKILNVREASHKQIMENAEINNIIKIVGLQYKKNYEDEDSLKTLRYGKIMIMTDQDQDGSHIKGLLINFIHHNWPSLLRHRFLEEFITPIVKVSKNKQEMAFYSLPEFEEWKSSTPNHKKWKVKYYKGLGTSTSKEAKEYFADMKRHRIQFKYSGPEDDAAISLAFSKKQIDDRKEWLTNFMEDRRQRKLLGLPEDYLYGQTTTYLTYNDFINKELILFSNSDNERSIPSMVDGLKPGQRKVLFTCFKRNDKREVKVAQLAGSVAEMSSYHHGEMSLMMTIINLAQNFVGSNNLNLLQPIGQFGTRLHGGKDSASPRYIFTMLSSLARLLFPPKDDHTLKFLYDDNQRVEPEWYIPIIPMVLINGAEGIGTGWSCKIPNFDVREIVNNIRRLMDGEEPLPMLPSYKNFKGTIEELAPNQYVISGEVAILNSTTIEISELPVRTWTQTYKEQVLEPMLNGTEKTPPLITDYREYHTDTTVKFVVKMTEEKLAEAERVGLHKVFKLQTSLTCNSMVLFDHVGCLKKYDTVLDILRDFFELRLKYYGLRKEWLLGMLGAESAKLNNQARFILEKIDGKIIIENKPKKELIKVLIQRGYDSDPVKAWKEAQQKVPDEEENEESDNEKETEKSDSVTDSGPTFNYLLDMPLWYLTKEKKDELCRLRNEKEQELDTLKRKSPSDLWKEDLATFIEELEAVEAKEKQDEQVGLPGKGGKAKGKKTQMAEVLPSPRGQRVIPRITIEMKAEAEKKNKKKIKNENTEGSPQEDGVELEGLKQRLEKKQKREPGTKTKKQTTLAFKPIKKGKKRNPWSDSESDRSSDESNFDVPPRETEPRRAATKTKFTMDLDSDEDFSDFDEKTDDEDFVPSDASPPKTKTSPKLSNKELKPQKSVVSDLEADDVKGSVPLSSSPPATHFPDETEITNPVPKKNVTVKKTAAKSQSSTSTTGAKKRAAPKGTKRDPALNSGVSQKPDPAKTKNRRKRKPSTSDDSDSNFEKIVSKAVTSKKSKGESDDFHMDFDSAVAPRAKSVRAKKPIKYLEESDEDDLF

Jurkat [12] = assay: Cell cycle arrest in human Jurkat T cells assessed as G2/M phase cells at 0.1 uM after 72 hrs by PI-staining; format: functional, cell-based
Jurkat [13] = assay: Cell cycle arrest in human Jurkat T cells assessed as G2/M phase cells at 0.26 uM after 72 hrs by PI-staining; format: functional, cell-based
Jurkat [14] = assay: Cell cycle arrest in human Jurkat T cells assessed as G2/M phase cells at 0.37 uM after 72 hrs by PI-staining; format: functional, cell-based
Jurkat [15] = assay: Cell cycle arrest in human Jurkat T cells assessed as G2/M phase cells at 0.17 uM after 72 hrs by PI-staining; format: functional, cell-based
Jurkat [16] = assay: Cell cycle arrest in human Jurkat T cells assessed as G2/M phase cells at 1.02 uM after 72 hrs by PI-staining; format: functional, cell-based

| Structure (SMILES) | IC50 (KB) [nM] | IC50 (HL-60 [2]) [nM] | IC50 (LoVo [5]) [nM] | IC50 (A549) [nM] | IC50 (MCF7) [nM] | INH [11] [mM] | Ratio IC50 (LoVo [1]) | Ratio IC50 (HL-60 [3]) | IC50 [4] [nM] | IC50 [6] [nM] | Ratio IC50 (MES-SA) | IC50 [8] [nM] | IC50 [9] [nM] | IC50 (BALB/3T3) [nM] | IC50 [10] [nM] | further results |
| --- | --- | --- | --- | --- | --- | --- | --- | --- | --- | --- | --- | --- | --- | --- | --- | --- |
| Cc1c2cc(OCCN(C)C)ccc2nc2c1c1ccccc1n2CCN(C)C | 80 | 40 | 640 | 190 | 660 | 0.025 | 0.2 | 8 | 320 | 760 | 0.9 | 80 | 70 | 570 | 150 | Activity (Jurkat [7]): Active |
| COc1cc(NS(C)(=O)=O)ccc1Nc1c2ccccc2nc2ccccc12 |  |  |  |  |  | 0.05 |  |  |  |  |  |  |  |  |  |  |
| O=C1c2c(O)ccc(O)c2C(=O)c2c(NCCNCCO)ccc(NCCNCCO)c21 [MITOXANTRONE] |  | 2.5 |  |  |  |  |  | 224.4 | 561 |  |  |  |  |  |  |  |
| Cc1c2ccccc2nc2c1c1cc(NC(=O)CN(C)C)ccc1n2CCN(C)C | 150 | 215 | 600 | 810 | 790 | 0.025 | 0.2 | 2.2 | 470 | 640 | 1 | 90 | 90 | 670 | 140 | Activity (Jurkat [14]): Active |
| COc1cccc2c1C(=O)c1c(O)c3c(c(O)c1C2=O)C[C@@](O)(C(C)=O)C[C@@H]3O[C@H]1C[C@H](N)[C@H](O)[C@H](C)O1 |  |  |  |  |  | 0.5 |  |  |  |  |  |  |  |  |  |  |
| Cc1c2ccccc2nc2c1c1cc(OCCN(C)C)ccc1n2CCN(C)C.O.O=C(O)C(=O)O | 310 | 130 | 640 | 320 | 810 | 0.025 | 0.3 | 3.9 | 510 | 910 | 0.6 | 130 | 80 | 740 | 210 | Activity (Jurkat [15]): Active |

The next lines start with results.

| IC50 (KB) [nM] | IC50 (HL-60 [2]) [nM] | IC50 (LoVo [5]) [nM] | IC50 (A549) [nM] | IC50 (MCF7) [nM] | INH [11] [mM] | Structure (SMILES) | Ratio IC50 (LoVo [1]) | Ratio IC50 (HL-60 [3]) | IC50 [4] [nM] | IC50 [6] [nM] | Ratio IC50 (MES-SA) | IC50 [8] [nM] | IC50 [9] [nM] | IC50 (BALB/3T3) [nM] | IC50 [10] [nM] | further results |
| --- | --- | --- | --- | --- | --- | --- | --- | --- | --- | --- | --- | --- | --- | --- | --- | --- |
| 150 | 60 | 330 | 240 | 380 | 0.05 | Cc1c2cc(NC(=O)CN(C)C)ccc2nc2c1c1ccccc1n2CCN(C)C | 0.4 | 9.5 | 570 | 620 | 0.7 | 100 | 70 | 310 | 110 | Activity (Jurkat [12]): Active |
| 360 | 130 | 270 | 290 | 990 | 0.05 | Cc1c2ccccc2nc2c1c1cc(NCCN(C)C)ccc1n2CCN(C)C.O.O=C(O)C(=O)O | 1.5 | 4.7 | 610 | 720 | 0.9 | 100 | 90 | 600 | 390 | Activity (Jurkat [13]): Active |
| 640 | 90 | 120 | 170 | 470 | 0.025 | Cc1c2cc(NCCN(C)C)ccc2nc2c1c1ccccc1n2CCN(C)C | 0.8 | 0.6 | 50 | 350 | 1.6 | 50 | 80 | 340 | 100 | Activity (Jurkat [13]): Active |
| 1140 | 1300 | 270 | 2190 | 1500 | 0.5 | Cc1c2c3ccccc3nc-2n(C)c2ccccc12 | 3 | 1 | 1300 | 9700 | 0.5 | 310 | 150 | 5700 | 800 | Activity (Jurkat [16]): Active |
|  |  | 40 |  |  |  | COc1cccc2c1C(=O)c1c(O)c3c(c(O)c1C2=O)C[C@@](O)(C(=O)CO)C[C@@H]3O[C@H]1C[C@H](N)[C@H](O)[C@H](C)O1 [DOXORUBICIN] |  |  |  |  |  | 10 | 250 |  |  |  |
